In ChEMBL document CHEMBL3886281, “Furo[3,4-c]quinoline derivatives, medicaments containing such compounds, their use and process for their preparation” (2015):

Target: T1, Cholesteryl ester transfer protein (Homo sapiens, UniProt P11597)
T1 sequence (P11597 whole entry): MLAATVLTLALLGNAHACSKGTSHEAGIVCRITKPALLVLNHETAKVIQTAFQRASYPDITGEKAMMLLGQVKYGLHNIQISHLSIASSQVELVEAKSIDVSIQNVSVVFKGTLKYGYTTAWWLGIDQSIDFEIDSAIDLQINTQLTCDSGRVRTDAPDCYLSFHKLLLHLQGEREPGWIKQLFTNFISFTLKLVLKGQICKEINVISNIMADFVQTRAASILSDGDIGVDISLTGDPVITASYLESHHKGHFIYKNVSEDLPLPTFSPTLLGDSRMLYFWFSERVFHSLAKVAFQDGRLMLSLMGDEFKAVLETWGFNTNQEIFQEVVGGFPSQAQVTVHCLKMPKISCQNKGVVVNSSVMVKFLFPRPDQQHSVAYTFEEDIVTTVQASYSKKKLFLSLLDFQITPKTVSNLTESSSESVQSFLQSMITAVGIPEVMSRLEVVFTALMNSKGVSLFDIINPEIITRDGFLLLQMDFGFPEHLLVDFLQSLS
Assay: CETP In Vitro Assay: CETP inhibitory activity of compounds of the present invention can be determined in a fluorometric assay purchased from Roar Biomedical, Inc. (New York, N.Y., USA). […] Recombinant human CETP was partially purified from medium conditioned by CETP expressing CHO cells. In a 384 well format 2.5 ul of compound solution in DMSO was combined with 2 ul of donor solution, 2 ul of acceptor solution and 0.8 ul of recombinant human CETP solution in a total volume of 100 ul with assay buffer and incubated for 3 hours at 37° C. The fluorescence intensity was measured at excitation wavelength of 485 nm and emission wavelength of 535 nm.

`CC(C)c1nc2c(c3c1[C@@H](c1ccc(C(F)(F)F)nc1)OC31CCOCC1)[C@@H](O)CC1(CC1)[C@H]2O` was tested, and the IC50 was 210 nM.
